Test results taken from a melting point compilation (Tetko et al.; mined from patent text by program, amines drawn as free bases though some values may be those of a salt).

Compound	melting point [°C]
CCc1cc(OCc2ccc(-c3ccccc3C#N)cc2)c2ccccc2n1	151 to 153
COc1ccc(CBr)c(Cl)c1Cl	101 to 102
CN1CC(C(=O)c2nc(Cc3ccc(F)cc3)co2)=C(O)C1=O	209 to 210
COC(=O)N[C@H](C(=O)NN(Cc1ccc(-c2cncs2)cc1)C[C@H](O)[C@H](Cc1ccccc1)NC(=O)[C@@H](NC(=O)OC)C(C)(C)C)C(C)C	134 to 135
Cc1ccc(C(=O)Nc2ccc(-n3nc(C(F)(F)F)cc3C(F)(F)F)cc2)c(Cl)n1	155 to 156
COc1ccc2nc(-c3ccc(C=C4C(=O)C5(C)CCC4C5(C)C)cc3)[nH]c2c1 (configuration not stated)	138 to 142
COC(=O)c1coc(-c2ccc(NS(=O)(=O)c3sc4ccc(F)cc4c3C)c(S(C)(=O)=O)c2)n1	290 to 292
C=CCC1(CC=C)CCC(=Cc2ccc(Cl)cc2)C1(O)Cn1cncn1 (configuration not stated)	128
NC(=O)c1sc2nccc(N3CCCN(c4ccc([N+](=O)[O-])cc4)CC3)c2c1N	244 to 248
CC(C)(O)Cn1c(N)nc2c(N)nc3c(c21)CCCC3	> 270
Cc1c(S(C)(=O)=O)c2ccccc2n1CC1=NCCN1	187 to 188
Cc1[nH]c(=O)oc1C(=O)c1ccc(-n2ccnc2)cc1	320
O=C(Nc1ncco1)C1c2ccccc2Oc2ccccc21	232 to 235
Nc1nnc(-c2ccccc2Cl)c(-c2ccccc2Cl)n1	240 to 242
CNCCOc1ccc(C(=C(CCO)c2ccccc2)c2ccccc2)cc1	134 to 139
O=C1CNC(=O)C(=Cc2cc3ccccc3s2)N1	258
OCc1ccc(-c2nn(Cc3ccccc3)c3ncncc23)o1	165
CCn1ncc2c(-c3cncc(C)c3)c(CCC(=O)O)c(-c3ocnc3C)nc21	184 to 186
O=C1CCC(Nc2nccc(-n3nnc4ccccc43)n2)CC1	205 to 206
O=C1CSc2nc(C34CC5CC(CC(C5)C3)C4)cn21	130 to 132
C=C(C)C(=O)Nc1ccc(NC(=O)C(F)(F)C(F)(F)C(F)(F)F)c(O)c1	247 to 250
O=c1cnc2c([N+](=O)[O-])c(Cl)c(Cl)cc2[nH]1	330 to 332
Cn1cc2c(n1)Nc1ccc(Cl)cc1NC2=O	> 260

Compound	melting point [°C]
Cc1c(Cl)ccc2[nH]c(CO)cc12	108
CCOC(=O)c1sc(SC(C)C)c2c1CCc1nc(C)oc1-2	62 to 63
Cc1c(C)c2c(c(C)c1NC(=O)CC(C)(C)C)C(c1ccc(C(C)CCO)cc1)CO2 (configuration not stated)	145 to 147
Cc1oc(-c2ccco2)nc1COc1ccc(COc2nn(Cc3ccccc3)cc2CO)cc1OCc1ccccc1	145 to 146
CNC(=O)c1c(-c2ccccc2)noc1CC(O)c1ccccc1 (configuration not stated)	183 to 184
Cc1cc(-c2cccc3[nH]ccc23)nc(N)n1	242 to 244
Cc1c(C(=O)O)sc(=O)c2ccccc12	243 to 245
O=c1oc(-c2c(F)cccc2Cl)nn1-c1ccccc1C(F)(F)F	109 to 110
O=C(O)CC12CC3CC(CC(Cl)(C3)C1)C2	182 to 184
Cc1c(Br)cccc1NCc1cc(C(C)(C)C)sc1C(=O)O	150 to 152
O=C1C(c2ccc(O)cc2)=C(Br)c2cc(O)ccc21	245
CC(=C1SC(=O)NC1=O)c1ccc(OCCOc2c(-c3ccc(F)cc3)n(C)c3cc(Cl)ccc3c2=O)cc1	292 to 296
COc1ccc(-c2ccnc3c(C(=O)c4cccs4)cnn23)cc1NC(=O)OC(C)C	193 to 195
N#Cc1ccc(CN2CCNC2=O)cc1	127 to 133
Clc1cccc(Oc2ncccc2Br)c1	88 to 90
Cc1ccc(S(=O)(=O)Nc2ccc([N+](=O)[O-])cc2C)cc1	173 to 174
O=S(=O)(Nc1ccc(Cl)cc1Oc1ccc(Cl)cc1Cl)C(F)(F)F	97 to 98
CCCC=Cc1c(C)nc(C(C)C)c(CO)c1-c1ccc(F)cc1	106 to 108
COc1ccc2cc3c(c(-c4ccc(C(F)(F)F)cc4)c2c1)CNC3=O	219 to 221
CS(=O)(=O)Nc1cccc2c1CCC[C@H]2c1c[nH]cn1	118 to 123
Cc1ccc(S(=O)(=O)N(Cc2ccccc2)N=O)cc1	92 to 93
N#CC(=NOCF)C(N)=O	124 to 125

Results, then the compound that gave them:

melting point [°C]	Compound
150 to 152	CC1=C(C(=O)OC(C)C)C(c2cccc([N+](=O)[O-])c2)N(CCCc2ccccc2)C(=O)N1 (configuration not stated)
140	CCCCOc1ccc(C(=O)Nc2ccc3ccc(Cl)nc3n2)cc1
128 to 129	CCCCCN1C(=O)C2(COc3cc4c(cc32)CCO4)c2ccccc21 (configuration not stated)
139 to 141	CCOc1ccc(S(C)(=O)=O)cc1C(=O)O
157 to 163	COc1cc(C(C)(C)CNC(=O)c2cccc(Br)c2)cc2c1OC(C)(C)C2
201 to 203	COc1cccc(-c2nc(NC(=O)Nc3ccccn3)cs2)c1
156 to 158	CCCS(=O)(=O)N(c1cc(Cl)ccc1C(=O)OC)S(=O)(=O)CCC
249 to 250	O=C(O)c1cc([N+](=O)[O-])c(Nc2ccccc2)c(S(=O)(=O)Nc2ccccc2)c1
140	CN(C(=O)Nc1ccc(Cl)c(Cl)c1)S(C)(=O)=O
208 to 209	Cc1nc(-n2ccc(OCc3ccccc3)cc2=O)sc1C(=O)NCc1cccnc1
155 to 157	CCC1OCCn2c1nc(C(=O)NCc1ccc(F)cc1-n1cncn1)c(OCc1ccccc1)c2=O (configuration not stated)
69 to 71	CCCCCCCCCCCCc1c[nH]cn1
139 to 142	CC(C)(C)c1cc(CN2CC(O)C2)cc(C(C)(C)C)c1O
109 to 110	CCN(CC)C(=O)c1c(OC)ccc2cc(Br)ccc12
88 to 91	CC(C)C(NC(=O)c1ccc(C(=O)NCC(=O)O)cc1)C(=O)N(CC(=O)NC(C(=O)C(F)(F)F)C(C)C)C1Cc2ccccc2C1 (mixture of isomers)
259 to 261	COc1ccc(C=CC(=O)N2CCN(C(=O)C=Cc3ccc(OC)c(C(F)F)c3)CC2)cc1C(F)F
84	COc1cc(C2(C#N)CC2)ccc1OCc1ccccc1
112	CCN1C(=O)[C@@H](NC(=O)OC(C)(C)C)COc2ccccc21
114 to 115	CCCNC(=O)NCCCCN1CCC(CNC(=O)c2cc(Cl)c(N)cc2OC)CC1
67 to 76	COc1ccc(Nc2nc(Nc3cc4c(cc3OC)CCN(CC(=O)N(C)C)CC4)ncc2Cl)c(OC)n1
123 to 128	COc1nc(C)nc(N2CCc3ccccc3CC2)c1[N+](=O)[O-]
126	CCC1CC(=O)N(Cc2cccc(NC(=O)C(F)(F)C(F)(F)F)c2)N=C1c1ccc(OC)c(OC2CCCC2)c1 (configuration not stated)
246 to 249	CCOc1ccc(S(=O)(=O)n2nc(O)cc2N)cc1-c1nc2cccnc2c(=O)[nH]1
130	CC(=O)O[C@H]1CC[C@H]2[C@@H]3CCc4cc(O)ccc4[C@H]3[C@@H](CCCCCCCCCS(=O)(=O)CCCC(F)(F)C(F)(F)F)C[C@]12C
211	COC(=O)c1ccc(C(=O)Nc2ccc3c(c2)C(C)(C)CCC3(C)C)cc1
97 to 98	CCOC(=O)C(=O)CC(=O)C=Cc1ccc(O)c(OC)c1

melting point [°C]	Compound
135 to 136	Cc1c(O)cccc1C(=O)N[C@@H](Cc1ccccc1)[C@H](O)C(=O)N1CSC(C)(C)[C@H]1C(=O)N[C@@H]1CCOc2ccccc21
103	CC(=O)OCC1OC(c2nc(C(N)=O)cs2)C(OC(C)=O)C1OC(C)=O (configuration not stated)
56 to 58	CCCCCC(O)C=CC1C(O)CC(=O)C1CCCCCCC(=O)OCCSS(C)(=O)=O (configuration not stated)
191 to 204	CC(=O)NC[C@H]1CN(c2ccc(N3CCN(c4ccc([N+](=O)[O-])o4)CC3)c(F)c2)C(=O)O1
90 to 93	COc1ccc(C2(C)C(=O)c3c(N4CCN(C)CC4)cc(Cl)cc3N(Cc3cccc(N)c3)C2=O)cc1 (configuration not stated)
188 to 190	COc1cc(C)c(C=CC(C)=CC=C(C)C(=O)O)c(C)c1C
176	CCOC(=O)C1=C(C)NN=C(C(=O)OC)C1c1cccc([N+](=O)[O-])c1 (configuration not stated)
155 to 156	COC(=O)c1c(C(=O)OC)c(-c2nccnc2C)n(NS(=O)(=O)c2ccc(C)cc2)c1C
93 to 96	CCOC(=O)C(C)C(NC(C)=O)C(C(C)=O)C(=O)OC (configuration not stated)
183 to 184	CCOC(=O)Cn1[nH]c(C)c(Cc2cc(Cl)cc(Cl)c2)c1=O
243 to 244	COC(=O)C1Cc2c([nH]c3ccccc23)CN1C(=O)c1ccc(Cl)cc1 (configuration not stated)
250 to 252	CCOc1ccc(Nc2ncc(C(=O)O)c(=O)[nH]2)cc1
106 to 108	CCCc1c(OCCCOc2ccc(CC(=O)O)cc2)ccc(C(C)=O)c1O
220 to 222	CON=C1CN(c2c(F)c(N)c3c(=O)c(C(=O)O)cn(C4CC4)c3c2F)CC12CN(C)C2
127	O=C(Oc1cc(-c2ccccc2)nc2ccccc12)N1CCOCC1
93 to 94	CON=C(C)C(C)=NOc1ccccc1C(=NOC)C(=O)OC
155 to 157	COc1ccc(OC(C)=O)c(C(=O)O)c1
235	O=C1NC(=O)N2c3ccccc3[C@H]3CCN4CCC[C@H]1[C@H]4[C@H]32 (racemic)
72	O=C(CCc1cccc2[nH]ccc12)c1ccccc1OCC1CO1 (configuration not stated)
195 to 196	COc1cc2nc(S(=O)Cc3cccn4ccnc34)[nH]c2cc1OC (configuration not stated)
214 to 215	O=C1CC(C(F)(F)F)CC(=O)N1c1cc(OS(=O)(=O)c2ccccc2)c(Cl)cc1F
68 to 70	COC(=O)N1CCCc2onc(OC)c2C1
137 to 139	COc1ccccc1N1CCN(CCCNC2=CC(=O)N(C)S(=O)(=O)N2C)CC1
68 to 69.5	Cc1cc(OCCCCOCc2ccccc2)cc(C)c1N=Nc1ccc([N+](=O)[O-])cc1
125 to 127	CC(C)(C)OC(=O)NC1(CCN2C(=O)c3ccccc3C2=O)CC1
93 to 94	CCOC(=O)CC1CN=C(c2cc3cc(OC(F)(F)F)cc(N(C)S(=O)(=O)c4cccs4)c3[nH]2)S1 (configuration not stated)
